Results taken from PMC4301629 (PLoS ONE, 2015).

How the values were obtained:
HEK293/EBNA cells = experiment: IP accumulation (IP-One HTRF) in untransduced HEK-293/EBNA cells; format: cell-based; conditions: HEK293/EBNA untransduced
α1A-AR [1] = biological target: T1, α1A-AR (Homo sapiens, UniProt P35348); experiment: LC-MS detection of IP1, IP2 and IP3 in α1A-AR_CHO stable cells; format: cell-based; parameters: expressed in transfected cells; conditions: α1A-AR CHO, Iso up to 1 mM
T1 sequence (P35348 1-466): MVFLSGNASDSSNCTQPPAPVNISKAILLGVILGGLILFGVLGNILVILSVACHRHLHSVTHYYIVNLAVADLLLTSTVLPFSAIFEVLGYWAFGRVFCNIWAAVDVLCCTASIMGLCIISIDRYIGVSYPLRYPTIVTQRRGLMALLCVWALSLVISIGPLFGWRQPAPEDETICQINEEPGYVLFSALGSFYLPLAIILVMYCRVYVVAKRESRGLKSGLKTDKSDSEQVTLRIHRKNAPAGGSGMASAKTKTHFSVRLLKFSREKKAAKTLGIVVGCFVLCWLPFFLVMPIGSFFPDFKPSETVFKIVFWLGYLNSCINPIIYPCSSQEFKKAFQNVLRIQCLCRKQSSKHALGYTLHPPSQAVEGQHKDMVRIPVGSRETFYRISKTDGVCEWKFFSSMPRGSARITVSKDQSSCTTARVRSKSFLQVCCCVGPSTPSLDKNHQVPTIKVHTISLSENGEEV
Description: (§1) After that, the medium was replaced with agonist solution in assay buffer (20 mM HEPES, 10 mM glucose, 1.8 mM CaCl2, 0.5 mM MgSO4, in HBSS 1X buffer, 50 mM LiCl) and cells were incubated at 37°C for 30 min. Stimulation was stopped by exchange of assay buffer with lysis buffer (100 μL 0.1N HCl/MeOH), and lysis proceeded for 30 min at 4°C. Cellular levels of inositol phosphates were determined using a Thermo LC-MS detection system following a published protocol. Chromatography was performed employing a BioBasic column AX (50 × 2.1 mm, Thermo). The mobile phase consisted of solvent A: 10 mM ammonium acetate, pH 6 in 30/70 acetonitrile/water, and solvent B: 1 mM ammonium acetate, pH 11 in 30/70 acetonitrile/water. A gradient solvent system was used starting with 0% solvent B, and analytes were eluted by increasing solvent B to 100% over 3 min. Each data point represents the average of triplicate determinations and each experiment was performed at least three times independently.
IP1, IP2, and IP3 levels were determined via LC-MS. Plots are representative of three independent experiments with each data point being the average of triplicates.

α1A-AR [2] = biological target: T1, α1A-AR; experiment: Ca2+ transient response (FLIPR, fluo3) in α1A-AR transduced HEK-293/EBNA cells; format: cell-based; parameters: expressed in transfected cells; host or cells: HEK-293/EBNA (baculovirus transduction, NaBu induction); conditions: 100 nM NE, α1A-AR_HEK-293/EBNA
Description: (§2) Prior to experiments, cells were transduced with baculovirus strains designed for transient expression of α1A-AR or aldehyde oxidase (negative control). This was performed by incubating cells with virus (MOI 100–150) for 3 to 4 h, followed by exchange into fresh serum free growth medium supplemented with 4 mM sodium butyrate (NaBu). Cells were grown for another 14 to 18 h and then examined for agonist-evoked responses in transient Ca^2+ release, IP accumulation or pERK activation assays. The surface receptor expression density was determined by flow cytometry via immunofluorescence labeling of an N-terminal HA epitope tag on the receptor and radioligand binding in partially purified membranes.
(§3) Cells were resuspended in Hank’s balanced salt solution (Invitrogen) supplemented with 2 mM CaCl2, 10 mM HEPES pH 7.4, 2.5 mM probenecid, plus 1g/L each of glucose and bovine serum albumin (BSA), and seeded in poly-D-lysine coated 96-well black plates with transparent bottom (Costar) at a density of 50,000 cells/0.1 mL per well. Cells were then incubated for 1 h at 37°C with an additional 0.1 mL of buffer containing 4 μM fluo3-AM that was diluted from a stock solution containing 1 mM fluo3-AM dye in DMSO with 10% pluronic acid. After dye loading incubation, plates were washed twice with 100 μL of buffer and refilled with 100 μL of assay buffer. In experiments testing the effect of antagonists, 25 μL of buffer from wells of washed cells were replaced with 25 μL of vehicle or 4× antagonist solution. Pre-incubation of ligand with dye-loaded cells proceeded for 5–30 minutes immediately prior to measurements of agonist-evoked responses. Agonist-evoked Ca^2+ mobilization responses of cell populations were monitored at room temperature simultaneously in all wells of the assay plate using the plate-imaging fluorometric reader FLIPR (MDS Analytical Technologies, Sunnyvale, CA). […] The amplitudes of Ca^2+ transient responses are reported as ΔF/F0, or fold-change in Ca^2+ dye fluorescence relative to the baseline signal ΔF/F0 = (F-F0)/F0 +1 (where ΔF is maximal fluorescence intensity observed following agonist application, F0 = baseline fluorescence, or average intensity measured over the 10 s interval prior to agonist application). Image acquisition rates were varied from 1 Hz during the first 100 s of measurements to 0.5 Hz for the remaining time of the recording.
(§4) Graphs shown reflect either pooled or representative data (see figure legends). For concentration-response analysis, results from Ca^2+ mobilization experiments were plotted as ΔF/F0 vs. agonist concentration and fit to a sigmoidal concentration-response equation using the GraphPad Prism software package. In cases where biphasic concentration-response curves were observed data were fit to a two-site concentration-response model: F(X)=R0+(Rmax−R0)[Fr1/(1+10^X-logEC50,1)+(1−Fr1)/(1+10^X-logEC50,2)] (1) , where X is the logarithm of the agonist concentration, R0 and Rmax are respectively the response minimum and maximum; Fr1 is the response fraction attributable to receptor characterized by half effective concentration of the first response phase (EC50,1), with the reminder response attributable to the second half effective concentration (EC50,2). For radioligand binding experiments, B max values were calculated from maximum binding using the equation B max = (SB × ([…] + [L])/[L]), where SB is the specific binding expressed as fmol per mg of membrane protein, and [L] is the ligand concentration.

α1A-AR [3] = biological target: T1, α1A-AR; experiment: LC-MS detection of IP1, IP2 and IP3 in α1A-AR transduced HEK-293/EBNA cells; format: cell-based; parameters: expressed in transfected cells; host or cells: HEK-293/EBNA (baculovirus transduction, NaBu induction); conditions: Iso up to 10 mM
Description: as §1, with “Virally transduced HEK-293/EBNA cells were resuspended in growth medium and seeded in poly-D-lysine coated 96-well black plates at a density of 100,000 cells/0.1 mL per well, Cells were allowed to attach for 2 hours at 37°C in a humidified atmosphere of 95% air and 5% CO2. After” for “After”

α1A-AR [4] = experiment: Ca2+ transient response (FLIPR, fluo3) in α1A-AR transduced HEK-293/EBNA cells; format: cell-based; conditions: α1A-AR HEK-293/EBNA; RS100329 10 nM, ICI 118551 10 nM, atenolol 1 μM
Description: as §2, §3, §4

β2-AR = biological target: T2, β2-AR (Homo sapiens, UniProt P07550); experiment: Ca2+ transient response (FLIPR, fluo3) in untransduced / negative control HEK-293/EBNA cells; format: cell-based; conditions: non-transduced control cells; ICI 118551 10 nM, RS100329 10 nM, atenolol 1 μM
T2 construct: HEK-293/EBNA cells are known to express β2-AR endogenously; endogenous in cells; host or cells: HEK-293/EBNA (untransduced or negative-control transduced)
Description: as §2
Cells were resuspended in Hank’s balanced salt solution (Invitrogen) supplemented with 2 mM CaCl2, 10 mM HEPES pH 7.4, 2.5 mM probenecid, plus 1g/L each of glucose and bovine serum albumin (BSA), and seeded in poly-D-lysine coated 96-well black plates with transparent bottom (Costar) at a density of 50,000 cells/0.1 mL per well. […] Agonist-evoked Ca^2+ mobilization responses of cell populations were monitored at room temperature simultaneously in all wells of the assay plate using the plate-imaging fluorometric reader FLIPR (MDS Analytical Technologies, Sunnyvale, CA). […]

α1A-AR [5] = conditions: for α1A-AR; cited from earlier work
α1A-AR [6] = biological target: T1, α1A-AR; experiment: Ca2+ transient response (FLIPR) in α1A-AR_CHO stable cells; format: cell-based; parameters: expressed in transfected cells; conditions: antagonist at 100 nM
Description: as §3, with “In experiments testing the effect of antagonists, 25 μL of buffer from wells of washed cells were replaced with 25 μL of vehicle or 4× antagonist solution. Pre-incubation of ligand with dye-loaded cells proceeded for 5–30 minutes immediately prior to measurements of agonist-evoked responses.” left out, “Image acquisition rates were varied from 1 Hz during the first 100 s of measurements to 0.5 Hz for the remaining time of the recording.” left out
IP1, IP2, and IP3 levels were determined via LC-MS. […]

α1A-AR [7] = biological target: T1, α1A-AR; experiment: IP accumulation (IP-One HTRF) in α1A-AR transduced HEK-293/EBNA cells; format: cell-based; parameters: expressed in transfected cells; host or cells: HEK-293/EBNA (baculovirus transduction, NaBu induction); conditions: 10 nM antagonist preincubation; large rightward shift in A-61603 potency
Description: as §2
After 10–20 minutes, 10 μL of agonist was added followed by incubation for 5 to 30 minutes. Stimulation was stopped by addition of lysis buffer. Second messenger levels were determined using a homogeneous immunoassay method with time-resolved FRET detection (IP-One HTRF, Cisbio International) according to protocols provided by the supplier. Sample fluorescence was measured with a Nanoscan plate reader (IOM, Berlin). Each data point represents the average of quadruplicate determinations and each experiment was performed at least two times independently.

T2 sequence (P07550 whole entry): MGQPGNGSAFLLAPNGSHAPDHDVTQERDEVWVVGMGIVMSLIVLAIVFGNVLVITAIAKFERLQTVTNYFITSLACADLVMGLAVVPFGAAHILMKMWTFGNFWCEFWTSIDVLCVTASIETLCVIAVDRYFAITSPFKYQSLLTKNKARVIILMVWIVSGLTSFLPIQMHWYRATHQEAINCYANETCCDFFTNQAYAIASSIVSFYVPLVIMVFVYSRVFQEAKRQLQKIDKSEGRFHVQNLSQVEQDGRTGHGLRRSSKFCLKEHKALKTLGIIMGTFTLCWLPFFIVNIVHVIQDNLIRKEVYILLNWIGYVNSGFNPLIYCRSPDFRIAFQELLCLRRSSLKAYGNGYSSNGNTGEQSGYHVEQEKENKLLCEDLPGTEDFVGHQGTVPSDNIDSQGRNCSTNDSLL

**Q.** With `NC[C@H](O)c1ccc(O)c(O)c1` [NE, norepinephrine] as the compound, how does the “EC50 IP” value (HEK293/EBNA cells) read?
**A.** Its value is “BQL”.

**Q.** What about the “cellular concentration of inositol phosphates IP1, IP2 and IP3” value (α1A-AR [1]) of the same compound?
**A.** Its value is “concentration-dependent increases”.

**Q.** What about the “time to peak response amplitude post-agonist addition” value (α1A-AR [2]) of the same compound?
**A.** Its value is no more than 10 s.

**Q.** And the “cellular levels of inositol phosphates IP1, IP2 and IP3” value (α1A-AR [3])?
**A.** Its value is “concentration-dependent increases”.

**Q.** For `Cc1c[nH]c(=O)n(CCCN2CCN(c3ccccc3OCC(F)(F)F)CC2)c1=O` [RS100329], which “effect of antagonist on Iso-evoked Ca2+ response” value (α1A-AR [4]) is on record?
**A.** Its value is “virtually complete blocking of the low potency phase”.

**Q.** What about the “effect of antagonist on Iso-evoked Ca2+ response” value (β2-AR) of the same compound?
**A.** Its value is “ineffective”.

**Q.** What about the pKB (α1A-AR [5]) of the same compound?
**A.** Its pKB is 9.6.

**Q.** What about the “effect of antagonist pretreatment on Iso Ca2+ response” value (α1A-AR [6]) of the same compound?
**A.** The value was “blocked”.

**Q.** What about the “effect of antagonist on A-61603-stimulated IP accumulation” value (α1A-AR [7]) of the same compound?
**A.** Its value is “significantly attenuated IP accumulation”.

**Q.** For `CC(C)NCC(O)COc1ccc(CC(N)=O)cc1` (centres unmarked) [atenolol], which “effect of antagonist on Iso-evoked Ca2+ response” value (α1A-AR [4]) is on record?
**A.** The value was “had no effect”.

**Q.** For `CC(C)NCC(O)COc1cccc2ccccc12` (centres unmarked) [propranolol], which “effect of antagonist pretreatment on Iso Ca2+ response” value (α1A-AR [6]) is on record?
**A.** Its value is “insensitive”.
